Measurements published in PMC8231113, “Protein Secondary Structure Affects Glycan Clustering in Native Mass Spectrometry” (Life, 2021).
Read-outs that look alike come from different tables or passages of the source.

Columns and labels:
GII.4 Saga P dimer = GII.4 Saga P dimer (Norovirus GII.4 (human norovirus), UniProt B5BTR7); assay: Native MS, specific glycan binding to P dimer after reference protein correction; design: species or system human norovirus (hNoV); settings: for Kd: read-out: KD for HBGA B
Experimental: (§1) Prior to MS analysis, purified P dimers were buffer exchanged to 150 mM ammonium acetate (Sigma-Aldrich, reagent grade ≥98%) at pH 7 via centrifugal filter units at 12,000× g at 4 °C (Vivaspin 500, MWCO 10000, Sartorius). Glycans for native MS analysis were mixed with 1 µM (per monomer) purified GII.4 Saga P dimer and 3 µM of the reference proteins at indicated concentrations. Native mass spectra were measured at room temperature in positive ion mode on a high mass modified LCT Premier mass spectrometer (Waters/Micromass, UK and MS Vision, the Netherlands) with a nano-ESI source. In house-made gold-coated electrospray capillaries were used for direct-sample infusion without any accessory chromatographic separation. The voltages and pressures were optimized for non-covalent protein complexes. The gas pressure used in the source hexapole was set between 6.5 and 6.8 × 10^−2 mbar argon optimized for minimal complex dissociation and the backing pressure of the source roughing pump was set between 7.0 and 8.5 mbar. Spectra were recorded with applied voltages for the capillary and cone of 1.20 kV and 240 V, respectively. Note that charge state distributions for P dimers were sometimes slightly shifted as was the degree of glycan clustering per charge state. These changes were highly variable and not quantifiable.
(§2) For calibration of the raw data, a 25 mg/mL cesium iodide spectrum from the same day was used. MassLynx V4.1 (Waters, Manchester, UK) was used to assign peak series to protein species and to determine the mass after minimal smoothing. Furthermore, OriginPro 2016 SR2 (OriginLab, Northampton, MA, USA) was used for spectral deconvolution and curve fitting. Correction for nonspecific protein-ligand clustering was performed as described. Corrected peak areas were averaged and normalized to the free-protein signal. Data were based on at least three independent measurements. Python code Panda and Numpy package were used to calculate the specific binding of P dimers according to the glycan clustering ratio obtained from the selected reference protein candidates. Seaborn and matplotlib.pyplot package were imported into a python script to plot the results. The module of sklearn.linear model was applied for linear regression. The matplotlib and heatmap package were used to plot the heatmap.
Data from native ESI MS measurements were translated into dissociation constants (KD values). The detailed calculations were based on the equations listed below. A protein (P) and a glycan ligand (L) form a complex through non-covalent interactions leading to a reversible association described by (Equation (1)):(1) P+L⇌PL when equilibrium is reached, the KD can be calculated directly from the concentrations via the law of mass action (Equation (2)):(2) KD=[Pfree][Lfree]/[PL]
(§3) Theoretically, the KD is calculated by measuring the concentration of the three components (Pfree, Lfree, PL) in solution. Usually, these values are only indirectly accessible because they require ligand titration up to binding saturation. However, native MS allows for the directly measurement of Pfree and PL, from which Lfree can be calculated using the input concentrations. In the present work, the non-covalent interaction was measured in the gas phase assuming identical ESI and detection efficiency for free and glycan-associated proteins, both for the analyte and the reference protein. […] For P dimers, the equations reflect glycan binding to the individual monomers assuming that binding sites on each monomer are equal and independent.
Using R described in Equation (3), the KD calculation can be re-written into Equation (4) with the known initial concentration of glycan ligand [L0] and protein [P0], adapted from Sun et al.:(3) R=PLequil∕Pequil=∑nA(PL^n+)∕n∕∑nA(P^n+)∕n (4) KD =L0−RP0/1+R/R […]

[1] = molecular target: T1, ubiquitin from bovine erythrocytes (Ubq) (Bos taurus, UniProt P0CG53); assay: Native MS glycan clustering to reference protein Ubq; assay type: binding; settings: on Ubq
T1 construct: ubiquitin from bovine erythrocytes (Ubq, CAS number 75986-22-4); purchased Sigma-Aldrich (Merck, Germany); host or cells: bovine erythrocytes
Experimental: as §1, §2, §3
(§4) Using R described in Equation (3), the KD calculation can be re-written into Equation (4) with the known initial concentration of glycan ligand [L0] and protein [P0], adapted from Sun et al.:(3) R=PLequil∕Pequil=∑nA(PL^n+)∕n∕∑nA(P^n+)∕n (4) KD =L0−RP0/1+R/R
(§5) For the carbohydrate-binding experiments, it was essential to keep the initial protein concentrations and pH value constant during the analysis of the protein-carbohydrate solutions. While acidification occurs in any ESI droplet, the remaining solution in the capillary changes pH over time. Therefore, accumulated spectra were obtained within 10 min after the voltages were applied to minimize the influence of pH changes during the measurements. […]

[2] = molecular target: T2, carbonic anhydrase isozyme II from bovine erythrocytes (CA) (Bos taurus, UniProt P00921); assay: Native MS glycan clustering to reference protein CA; assay type: binding; settings: on CA
T2 construct: carbonic anhydrase isozyme II from bovine erythrocytes (CA, CAS number 9001-03-0); purchased Sigma-Aldrich (Merck, Germany); host or cells: bovine erythrocytes
T2 sequence (P00921 whole entry): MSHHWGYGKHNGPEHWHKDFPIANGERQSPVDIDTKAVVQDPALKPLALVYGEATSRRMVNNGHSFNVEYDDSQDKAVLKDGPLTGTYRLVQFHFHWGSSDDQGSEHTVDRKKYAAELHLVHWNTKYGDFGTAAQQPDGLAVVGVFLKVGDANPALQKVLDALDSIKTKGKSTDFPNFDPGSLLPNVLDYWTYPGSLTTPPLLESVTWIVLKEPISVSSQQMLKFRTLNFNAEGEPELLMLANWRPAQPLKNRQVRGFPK
Experimental: as §1, §2, §3, §4, §5

[3] = molecular target: T3, L-lactic dehydrogenase from rabbit muscle (LDH) (Oryctolagus cuniculus, UniProt P13491); assay: Native MS glycan clustering to reference protein LDH; assay type: binding; settings: on LDH
T3 construct: L-lactic dehydrogenase from rabbit muscle (LDH, CAS number 9001-60-9); purchased Sigma-Aldrich (Merck, Germany); host or cells: rabbit muscle
Experimental: as §1, §2, §3, §4, §5

Question: `CC(=O)N[C@H]1C(O)O[C@H](CO)[C@@H](O)[C@@H]1O[C@@H]1O[C@H](CO)[C@H](O)[C@H](O[C@H]2O[C@H](CO)[C@H](O)[C@H](O)[C@H]2O)[C@H]1O[C@@H]1O[C@@H](C)[C@@H](O)[C@@H](O)[C@@H]1O` (some centres unmarked) [HBGA B, Galα1-3(Fucα1-2)Galβ1-3GlcNAc] was tested. Which “specific binding after ADH based protein clustering correction” value (GII.4 Saga P dimer; Gb4: any listed glycan concentration, HBGA B: 500 µM) did it give?
Answer: a single binding event

Question: And the Kd (GII.4 Saga P dimer; correction with ref. protein ADH)?
Answer: 24000 ± 16000 µM

Question: What about the Kd (GII.4 Saga P dimer; correction with ref. protein CA) of the same compound?
Answer: 400 ± 100 µM

Question: And the Kd (GII.4 Saga P dimer; correction with ref. protein Cyt c)?
Answer: 160 ± 50 µM

Question: And the Kd (GII.4 Saga P dimer; correction with ref. protein GFP)?
Answer: 900 ± 350 µM

Question: What about the Kd (GII.4 Saga P dimer; correction with ref. protein Myo) of the same compound?
Answer: 250 ± 100 µM

Question: And the Kd (GII.4 Saga P dimer; correction with ref. protein Ubq)?
Answer: 200 ± 130 µM

Question: What about the “Bound number of carbohydrates on Saga P dimer” value (“Bound number … on Saga P dimer” for short) (GII.4 Saga P dimer; ref. protein ADH, glycan 100 µM) of the same compound?
Answer: 0

Question: What about the “Bound number … on Saga P dimer” value (GII.4 Saga P dimer; ref. protein ADH, glycan 200 µM) of the same compound?
Answer: 0

Question: What about the “Bound number … on Saga P dimer” value (GII.4 Saga P dimer; ref. protein ADH, glycan 300 µM) of the same compound?
Answer: 0

Question: And the “Bound number … on Saga P dimer” value (GII.4 Saga P dimer; ref. protein ADH, glycan 400 µM)?
Answer: 0

Question: And the “Bound number … on Saga P dimer” value (GII.4 Saga P dimer; ref. protein ADH, glycan 500 µM)?
Answer: 1

Question: What about the “Bound number … on Saga P dimer” value (GII.4 Saga P dimer; ref. protein CA, glycan 100 µM) of the same compound?
Answer: 1

Question: And the “Bound number … on Saga P dimer” value (GII.4 Saga P dimer; ref. protein CA, glycan 200 µM)?
Answer: 2

Question: And the “Bound number … on Saga P dimer” value (GII.4 Saga P dimer; ref. protein CA, glycan 300 µM)?
Answer: 2

Question: What about the “Bound number … on Saga P dimer” value (GII.4 Saga P dimer; ref. protein CA, glycan 400 µM) of the same compound?
Answer: 2

Question: And the “Bound number … on Saga P dimer” value (GII.4 Saga P dimer; ref. protein CA, glycan 500 µM)?
Answer: 2

Question: What about the “Bound number … on Saga P dimer” value (GII.4 Saga P dimer; ref. protein Cyto c, glycan 100 µM) of the same compound?
Answer: 2

Question: And the “Bound number … on Saga P dimer” value (GII.4 Saga P dimer; ref. protein Cyto c, glycan 200 µM)?
Answer: 3

Question: And the “Bound number … on Saga P dimer” value (GII.4 Saga P dimer; ref. protein Cyto c, glycan 300 µM)?
Answer: 4

Question: What about the “Bound number … on Saga P dimer” value (GII.4 Saga P dimer; ref. protein Cyto c, glycan 400 µM) of the same compound?
Answer: 4

Question: And the “Bound number … on Saga P dimer” value (GII.4 Saga P dimer; ref. protein Cyto c, glycan 500 µM)?
Answer: 4

Question: What about the “Bound number … on Saga P dimer” value (GII.4 Saga P dimer; ref. protein GFP, glycan 100 µM) of the same compound?
Answer: 1

Question: And the “Bound number … on Saga P dimer” value (GII.4 Saga P dimer; ref. protein GFP, glycan 200 µM)?
Answer: 1

Question: And the “Bound number … on Saga P dimer” value (GII.4 Saga P dimer; ref. protein GFP, glycan 300 µM)?
Answer: 2

Question: What about the “Bound number … on Saga P dimer” value (GII.4 Saga P dimer; ref. protein GFP, glycan 400 µM) of the same compound?
Answer: 2

Question: What about the “Bound number … on Saga P dimer” value (GII.4 Saga P dimer; ref. protein GFP, glycan 500 µM) of the same compound?
Answer: 2

Question: What about the “Bound number … on Saga P dimer” value (GII.4 Saga P dimer; ref. protein LDH, glycan 100 µM) of the same compound?
Answer: 0

Question: What about the “Bound number … on Saga P dimer” value (GII.4 Saga P dimer; ref. protein LDH, glycan 200 µM) of the same compound?
Answer: 0

Question: And the “Bound number … on Saga P dimer” value (GII.4 Saga P dimer; ref. protein LDH, glycan 300 µM)?
Answer: 0

Question: What about the “Bound number … on Saga P dimer” value (GII.4 Saga P dimer; ref. protein LDH, glycan 400 µM) of the same compound?
Answer: 0

Question: What about the “Bound number … on Saga P dimer” value (GII.4 Saga P dimer; ref. protein LDH, glycan 500 µM) of the same compound?
Answer: 1

Question: And the “Bound number … on Saga P dimer” value (GII.4 Saga P dimer; ref. protein Myo, glycan 100 µM)?
Answer: 2

Question: And the “Bound number … on Saga P dimer” value (GII.4 Saga P dimer; ref. protein Myo, glycan 200 µM)?
Answer: 3

Question: And the “Bound number … on Saga P dimer” value (GII.4 Saga P dimer; ref. protein Myo, glycan 300 µM)?
Answer: 3

Question: And the “Bound number … on Saga P dimer” value (GII.4 Saga P dimer; ref. protein Myo, glycan 400 µM)?
Answer: 3

Question: And the “Bound number … on Saga P dimer” value (GII.4 Saga P dimer; ref. protein Myo, glycan 500 µM)?
Answer: 4

Question: And the “Bound number … on Saga P dimer” value (GII.4 Saga P dimer; ref. protein Ubq, glycan 100 µM)?
Answer: 2

Question: And the “Bound number … on Saga P dimer” value (GII.4 Saga P dimer; ref. protein Ubq, glycan 200 µM)?
Answer: 3

Question: And the “Bound number … on Saga P dimer” value (GII.4 Saga P dimer; ref. protein Ubq, glycan 300 µM)?
Answer: 4

Question: What about the “Bound number … on Saga P dimer” value (GII.4 Saga P dimer; ref. protein Ubq, glycan 400 µM) of the same compound?
Answer: 4

Question: And the “Bound number … on Saga P dimer” value (GII.4 Saga P dimer; ref. protein Ubq, glycan 500 µM)?
Answer: 4

Question: What about the “Bound number … on Saga P dimer” value (GII.4 Saga P dimer; ref. protein apo-TFF, glycan 100 µM) of the same compound?
Answer: 1

Question: What about the “Bound number … on Saga P dimer” value (GII.4 Saga P dimer; ref. protein apo-TFF, glycan 200 µM) of the same compound?
Answer: 1

Question: What about the “Bound number … on Saga P dimer” value (GII.4 Saga P dimer; ref. protein apo-TFF, glycan 300 µM) of the same compound?
Answer: 1

Question: What about the “Bound number … on Saga P dimer” value (GII.4 Saga P dimer; ref. protein apo-TFF, glycan 400 µM) of the same compound?
Answer: 1

Question: What about the “Bound number … on Saga P dimer” value (GII.4 Saga P dimer; ref. protein apo-TFF, glycan 500 µM) of the same compound?
Answer: 2

Question: What about the “Glycan-Clustering Ratio R” value ([1]; 100 µM glycan) of the same compound?
Answer: 0.04±0.01

Question: And the “Glycan-Clustering Ratio R” value ([1]; 200 µM glycan)?
Answer: 0.04±0.01

Question: What about the “Glycan-Clustering Ratio R” value ([1]; 300 µM glycan) of the same compound?
Answer: 0.10±0.03

Question: And the “Glycan-Clustering Ratio R” value ([1]; 400 µM glycan)?
Answer: 0.18±0.01

Question: And the “Glycan-Clustering Ratio R” value ([1]; 500 µM glycan)?
Answer: 0.25 ± 0.00

Question: What about the “Glycan-Clustering Ratio R” value ([2]; 100 µM glycan) of the same compound?
Answer: 0.22±0.03

Question: And the “Glycan-Clustering Ratio R” value ([2]; 200 µM glycan)?
Answer: 0.32±0.05

Question: And the “Glycan-Clustering Ratio R” value ([2]; 300 µM glycan)?
Answer: 0.40±0.04

Question: What about the “Glycan-Clustering Ratio R” value ([2]; 400 µM glycan) of the same compound?
Answer: 0.60±0.05

Question: What about the “Glycan-Clustering Ratio R” value ([2]; 500 µM glycan) of the same compound?
Answer: 0.75 ± 0.07

Question: And the “Glycan-Clustering Ratio R” value ([3]; 100 µM glycan)?
Answer: 0.38±0.03

Question: And the “Glycan-Clustering Ratio R” value ([3]; 200 µM glycan)?
Answer: 0.54±0.05

Question: And the “Glycan-Clustering Ratio R” value ([3]; 300 µM glycan)?
Answer: 0.69±0.02

Question: And the “Glycan-Clustering Ratio R” value ([3]; 400 µM glycan)?
Answer: 0.77±0.05

Question: And the “Glycan-Clustering Ratio R” value ([3]; 500 µM glycan)?
Answer: 1.02 ± 0.04
